# Values quoted from earlier work, collected in patent US20110160253A1, “DEUTERATED TIZANIDINE” (priority 2008, published 2011).
# Experiments:
# [1] = primary cytochrome P450 isoenzyme involved being CYP1A2
# [2] = patients treated with tizanidine; appears to be dose related
compound,measurement,setting,value
"Clc1ccc2nsnc2c1NC1=NCCN1 [Tizanidine, 5-chloro-4-(2-imidazolin-2-ylamino)-2,1,3-benzothiodiazole]",administered dose that is metabolized,[1],Approximately 95%
same,patients who report sedation,[2],48%
